Measured values: paper PMC8467136, “Enabling Efficient Folding and High-Resolution Crystallographic Analysis of Bracelet Cyclotides” (Molecules, 2021)
Bridge positions count the residues as written; N and C are the ends. Peptide text beside a SMILES is read from it.

Tests used:
[1] = test system: POPC/POPE (80:20) model membrane; assay: Membrane binding to POPC/POPE lipid bilayers by surface plasmon resonance (SPR); details: for P/L Max, peptide-to-lipid maximum binding value / Kd: BIAcore T200, L1 chip, POPC/POPE (80:20) bilayer, 10 mM HEPES, 150 mM NaCl; for P/L Max, peptide-to-lipid maximum binding value: pH 7.4, injection 180 s, dissociation 600 s, nonlinear regression; for Kd: pH 7.4, nonlinear regression, read-out: KD, peptide concentration required to achieve half-maximum binding at equilibrium
Text: Cyclotides are reported to exert their biological activities via membrane binding, particularly by selective binding to lipids containing phosphatidylethanolamine (PE) headgroups. Therefore, to evaluate the functional impact of the single mutation on bracelet cyclotides, the membrane-binding ability of these variants towards PE-containing lipid bilayers was examined using surface plasmon resonance (SPR). The model membrane comprising 80% 1-palmitoyloleoyl-phosphatidylcholine (POPC) and 20% 1-palmitoyloleoyl-phosphatidylethanolamine (POPE) was used. Binding affinity was evaluated by the peptide-to-lipid maximum binding value (P/L max, mol/mol) and the peptide concentration required to achieve half-maximum binding at equilibrium (KD value, μM). […] The negative effect of the [I11G] bracelet cyclotide mutation on lipid binding was expected, as the mutation reduces surface hydrophobicity, a previously reported determinant of membrane binding. The SPR dose-response curves and sensorgrams are shown in Figure S4 in Supplementary Material.
The binding affinity of bracelet cyclotides and their variants toward lipid bilayers was studied using SPR, as described previously. Two synthetic lipids, 1-palmitoyl-2-oleoyl-glycero-3-phosphocholine (POPC) and 1-palmitoyl-2-oleoyl-sn-glycero-3-phosphoethanolamine (POPE), were purchased from Avanti Polar Lipids (USA). Briefly, homogenous, small, unilamellar vesicles composed of POPC/POPE (80:20, mol/mol) were obtained by extruding the vesicle suspension through a 50-nm pore size polycarbonate membrane. L1 sensor chips and BIAcore T200 instrument were used (Cytiva, Marlborough, MA, USA). After the lipid was loaded and formed a bilayer membrane on the L1 chip, peptide solutions were injected over the lipid surface for 180 s and the dissociation was monitored for 600 s. Peptides were tested at concentrations ranging from 4–32 μM. Peptide-to-lipid molar ratio and KD values were calculated by nonlinear regression using GraphPad Prism software (version 8.3.1). Peptide solutions and lipid vesicles were prepared in HEPES buffer (10 mM HEPES, 150 mM NaCl, pH 7.4, filtered) for SPR studies.

HeLa cells = assay: Cytotoxicity against HeLa cells, resazurin assay; assay type: cell-based; details: 5000 cells/well, 24-h incubation with peptide, then resazurin 18 h, triplicate, mean ± SEM
Protocol: To further confirm the activity of these mutants, their cytotoxicity against HeLa cancer cells was evaluated along with wild-type bracelet cyclotides. […] Of the four [I11G] mutants, the hyen D analogue had the highest activity, possibly because hyen D has one more hydrophobic residue in loop 3 compared to the other three cyclotides, which may contribute to its higher lipid-binding capacity (P/L max = 0.37) and help offset the hydrophobicity loss caused by the [I11G] mutation.
The cytotoxicity of the peptides was evaluated using the resazurin assay, as described previously. HeLa cells were seeded at 5000 cells/well in a 96-well, flat-bottomed plate one day prior to the experiments. Peptide solutions were prepared in water and incubated with HeLa cells at concentrations ranging from 16 to 0.125 μM or 8 to 0.063 μM in triplicate (final concentrations). Water and 1% Triton X-100 (TX) were applied as negative and positive control, respectively. After 24-h incubation, 10 μL of resazurin (0.05%, w/v) was added and incubated with cells for another 18 h. The absorbance was measured at 540 and 620 nm on a microplate reader (Infinite M1000 Pro microplate reader, Tecan, Switzerland). The percentage of cell death was quantified by calculating the absorbance ratio, R (R = absorbance at 620/540), and applying the following equation: % Cell death = (Rsample − RH2O)/(RTX − RH2O) × 100. Data were analyzed with GraphPad Prism software (version 8.3.1) using Specific binding with Hill slope algorithm.

Compound | P/L Max, peptide-to-lipid maximum binding value [1] | CC50 on HeLa (half maximum cytotoxic concentration) (HeLa cells) [µM] | Kd [1] [µM] | Fold weaker affinity to membranes compared to parent peptide ([1]; POPC/POPE (80:20), compared with hyen D) [fold]
CC[C@H](C)[C@@H]1NC(=O)[C@H](C)NC(=O)[C@H](CO)NC(=O)[C@H](CO)NC(=O)[C@H]([C@@H](C)CC)NC(=O)[C@@H]2CSSC[C@@H]3NC(=O)[C@H](C(C)C)NC(=O)[C@H](CCCCN)NC(=O)[C@H](CO)NC(=O)[C@H](CCCCN)NC(=O)[C@@H]4CSSC[C@H](NC(=O)[C@H](CO)NC(=O)[C@H](CCC(=O)O)NC(=O)CNC(=O)[C@H](CSSC[C@H](NC(=O)CNC1=O)C(=O)N[C@@H](CO)C(=O)N4)NC(=O)[C@@H]1CCCN1C(=O)[C@H]([C@@H](C)CC)NC(=O)CNC(=O)[C@H](CC(N)=O)NC(=O)[C@H](CCCNC(=N)N)NC(=O)[C@H](Cc1ccc(O)cc1)NC3=O)C(=O)N[C@@H](C(C)C)C(=O)N[C@@H](Cc1c[nH]c3ccccc13)C(=O)NCC(=O)N1CCC[C@H]1C(=O)N2 [[I11G]cyO2] (cyclo(AIGCSCKSKVCYRNGIPCGESCVWGPCISS); disulfide 4-18, 6-22, 11-27) | n.b. ^3 | >64 |  | 
CC[C@H](C)[C@@H]1NC(=O)CNC(=O)[C@H](CC(N)=O)NC(=O)[C@H](CCCNC(=N)N)NC(=O)[C@H](Cc2ccc(O)cc2)NC(=O)[C@@H]2CSSC[C@@H]3NC(=O)[C@@H]4CCCN4C(=O)CNC(=O)[C@H](Cc4c[nH]c5ccccc45)NC(=O)[C@H](C(C)C)NC(=O)[C@@H]4CSSC[C@H](NC(=O)[C@H](CO)NC(=O)[C@H](CSSC[C@H](NC(=O)[C@@H]5CCCN5C1=O)C(=O)NCC(=O)N[C@@H](CCC(=O)O)C(=O)N[C@@H](CO)C(=O)N4)NC(=O)CNC(=O)[C@H](C(C)C)NC(=O)[C@H](C)NC(=O)[C@H](CO)NC(=O)[C@H]([C@@H](C)O)NC(=O)[C@H](CC(C)C)NC3=O)C(=O)N[C@@H](CCCCN)C(=O)N[C@@H](CO)C(=O)N[C@@H](CCCCN)C(=O)N[C@@H](C(C)C)C(=O)N2 [[I11G]cyO9] (cyclo(AVGCSCKSKVCYRNGIPCGESCVWGPCLTS); disulfide 4-18, 6-22, 11-27) | n.b. | >64 |  | 
CC[C@H](C)[C@@H]1NC(=O)[C@H](C)NC(=O)[C@H](C)NC(=O)[C@H]([C@@H](C)O)NC(=O)[C@H](Cc2ccccc2)NC(=O)[C@@H]2CSSC[C@@H]3NC(=O)[C@H](C(C)C)NC(=O)[C@H](CCCCN)NC(=O)[C@H](CO)NC(=O)[C@H](CCCCN)NC(=O)[C@@H]4CSSC[C@H](NC(=O)[C@H](CO)NC(=O)[C@H](CCC(=O)O)NC(=O)CNC(=O)[C@H](CSSC[C@H](NC(=O)CNC1=O)C(=O)N[C@@H](CO)C(=O)N4)NC(=O)[C@@H]1CCCN1C(=O)[C@H](Cc1ccccc1)NC(=O)CNC(=O)[C@H](CC(N)=O)NC(=O)[C@H](CCCCN)NC(=O)[C@H](Cc1ccc(O)cc1)NC3=O)C(=O)N[C@@H](C(C)C)C(=O)N[C@@H](Cc1ccc(O)cc1)C(=O)NCC(=O)N1CCC[C@H]1C(=O)N2 [[I11G]hD] (cyclo(AAIGCSCKSKVCYKNGFPCGESCVYGPCFT); disulfide 5-19, 7-23, 12-28) | 0.24 ± 0.01 mol/mol | 50.2 ± 4.61 | 81 ± 7.91 | 18
CC[C@H](C)[C@@H]1NC(=O)[C@@H]2CSSC[C@@H]3NC(=O)[C@H](C(C)C)NC(=O)[C@H](CCCCN)NC(=O)[C@H](CC(=O)O)NC(=O)[C@H]([C@@H](C)O)NC(=O)[C@@H]4CSSC[C@H](NC(=O)[C@H](CO)NC(=O)[C@H](CCC(=O)O)NC(=O)CNC(=O)[C@H](CSSC[C@H](NC(=O)CNC(=O)[C@H]([C@@H](C)CC)NC(=O)[C@H](C(C)C)NC(=O)CNC(=O)[C@H](CO)NC1=O)C(=O)N[C@@H](CO)C(=O)N4)NC(=O)[C@@H]1CCCN1C(=O)[C@H]([C@@H](C)O)NC(=O)CNC(=O)[C@H](CC(N)=O)NC(=O)[C@H](CC(C)C)NC(=O)[C@H](Cc1ccc(O)cc1)NC3=O)C(=O)N[C@@H](C(C)C)C(=O)N[C@@H](Cc1ccc(O)cc1)C(=O)NCC(=O)N1CCC[C@H]1C(=O)N2 [[I11G]kB5] (cyclo(CGESCVYGPCISGVIGCSCTDKVCYLNGTP); disulfide 1-17, 5-19, 10-24) | n.b. | >64 |  | 
CC[C@H](C)[C@@H]1NC(=O)[C@H](C)NC(=O)[C@H](CO)NC(=O)[C@H](CO)NC(=O)[C@H]([C@@H](C)CC)NC(=O)[C@@H]2CSSC[C@@H]3NC(=O)[C@H](C(C)C)NC(=O)[C@H](CCCCN)NC(=O)[C@H](CO)NC(=O)[C@H](CCCCN)NC(=O)[C@@H]4CSSC[C@H](NC(=O)[C@H](CO)NC(=O)[C@H](CCC(=O)O)NC(=O)CNC(=O)[C@H](CSSC[C@H](NC(=O)CNC1=O)C(=O)N[C@@H](CO)C(=O)N4)NC(=O)[C@@H]1CCCN1C(=O)[C@H]([C@@H](C)CC)NC(=O)CNC(=O)[C@H](CC(N)=O)NC(=O)[C@H](CCCNC(=N)N)NC(=O)[C@H](Cc1ccc(O)cc1)NC3=O)C(=O)N[C@@H](C(C)C)C(=O)N[C@@H](Cc1c[nH]c3ccccc13)C(=O)N[C@@H](CC(C)C)C(=O)N1CCC[C@H]1C(=O)N2 [[I11L]cyO2] (cyclo(AIGCSCKSKVCYRNGIPCGESCVWLPCISS); disulfide 4-18, 6-22, 11-27) | 0.31 ± 0.01 mol/mol | 0.95 ± 0.08 | 4.71 ± 0.17 | 
CC[C@H](C)[C@@H]1NC(=O)CNC(=O)[C@H](CC(N)=O)NC(=O)[C@H](CCCNC(=N)N)NC(=O)[C@H](Cc2ccc(O)cc2)NC(=O)[C@@H]2CSSC[C@@H]3NC(=O)[C@@H]4CCCN4C(=O)[C@H](CC(C)C)NC(=O)[C@H](Cc4c[nH]c5ccccc45)NC(=O)[C@H](C(C)C)NC(=O)[C@@H]4CSSC[C@H](NC(=O)[C@H](CO)NC(=O)[C@H](CSSC[C@H](NC(=O)[C@@H]5CCCN5C1=O)C(=O)NCC(=O)N[C@@H](CCC(=O)O)C(=O)N[C@@H](CO)C(=O)N4)NC(=O)CNC(=O)[C@H](C(C)C)NC(=O)[C@H](C)NC(=O)[C@H](CO)NC(=O)[C@H]([C@@H](C)O)NC(=O)[C@H](CC(C)C)NC3=O)C(=O)N[C@@H](CCCCN)C(=O)N[C@@H](CO)C(=O)N[C@@H](CCCCN)C(=O)N[C@@H](C(C)C)C(=O)N2 [[I11L]cyO9] (cyclo(AVGCSCKSKVCYRNGIPCGESCVWLPCLTS); disulfide 4-18, 6-22, 11-27) | 0.31 ± 0.00 mol/mol | 1.06 ± 0.03 | 4.26 ± 0.06 | 
CC[C@H](C)[C@@H]1NC(=O)[C@H](C)NC(=O)[C@H](C)NC(=O)[C@H]([C@@H](C)O)NC(=O)[C@H](Cc2ccccc2)NC(=O)[C@@H]2CSSC[C@@H]3NC(=O)[C@H](C(C)C)NC(=O)[C@H](CCCCN)NC(=O)[C@H](CO)NC(=O)[C@H](CCCCN)NC(=O)[C@@H]4CSSC[C@H](NC(=O)[C@H](CO)NC(=O)[C@H](CCC(=O)O)NC(=O)CNC(=O)[C@H](CSSC[C@H](NC(=O)CNC1=O)C(=O)N[C@@H](CO)C(=O)N4)NC(=O)[C@@H]1CCCN1C(=O)[C@H](Cc1ccccc1)NC(=O)CNC(=O)[C@H](CC(N)=O)NC(=O)[C@H](CCCCN)NC(=O)[C@H](Cc1ccc(O)cc1)NC3=O)C(=O)N[C@@H](C(C)C)C(=O)N[C@@H](Cc1ccc(O)cc1)C(=O)N[C@@H](CC(C)C)C(=O)N1CCC[C@H]1C(=O)N2 [[I11L]hD] (cyclo(AAIGCSCKSKVCYKNGFPCGESCVYLPCFT); disulfide 5-19, 7-23, 12-28) | 0.36 ± 0.01 mol/mol | 0.70 ± 0.02 | 4.39 ± 0.5 | 
